Laboratory results: patent US20210038587A1, “METHODS AND COMPOSITIONS FOR TREATING NON-ERK MAPK PATHWAY INHIBITOR-RESISTANT CANCERS” (BIOMED VALLEY DISCOVERIES, INC., priority 2013, published 2021)

Legend:
Assay in all cases: Reverse Phase Protein Analysis (RPPA)
Settings in all cases: % change from DMSO (matched cell line)
A375 = format: cell-based, human
Procedure: (§1) Control wells were treated with DMSO at 0.1% (v/v) for 6 hours prior to cell lysate generation. Samples were then analyzed using reverse-phase protein microarray technology (Theranostics Health).
(§2) Cell lines with common alterations in BRAF and RAS were assayed: BRAF^V600E mutant lines A375, Colo205, and HT29; KRAS^G12C-mutant cell line MIAPACa-2; KRAS^G13D-mutant cell line HCT116; and AN3Ca with atypical HRAS^F82L mutation. Changes in protein levels are shown as a percentage change from dimethyl sulfoxide (DMSO)-treated parental control (FIG. 32A and Table 23).

HCT116 = format: cell-based, human
Procedure: as §1, §2

AN3Ca = format: cell-based
Procedure: as §1, §2

HT29 = format: cell-based
Procedure: as §1, §2

SMILES: Cn1nccc1Nc1nccc(-c2ccn([C@H](CO)c3ccc(Cl)c(F)c3)c(=O)c2)n1 [GDC-0994]
- Avg (4ebp1 T70) (A375): −29.47%
- Avg (Akt S473) (A375): 53.66%
- Avg (Akt) (A375): −20.7%
- Avg (Bad S136) (A375): −6.21%
- Avg (Bad S155) (A375): −13.31%
- Avg (Bak) (A375): 2.76%
- Avg (Bax) (A375): 3.97%
- Avg (Bcl 2) (A375): −3.13%
- Avg (Bcl2 S70) (A375): 6.3%
- Avg (Bcl 2 T56) (A375): −4.1%
- Avg (Bim) (A375): 9.8%
- Avg (CREB S133) (A375): −1.18%
- Avg (Caspase 3 CL D175) (A375): −16.74%
- Avg (Caspase 7 Cl D198) (A375): −5.53%
- Avg (Chk1) (A375): −7.72%
- Avg (Chk1 S345) (A375): −18.35%
- Avg (Cyclin D1) (A375): −81.65%
- Avg (ERK 1 2) (A375): 31.55%
- Avg (ERK 1 2 T202 Y204) (A375): 142.37%
- Avg (MAK1 S360) (A375): −5.21%
- Avg (Mcl1) (A375): −9.09%
- Avg (Raptor S792) (A375): −15.93%
- Avg (Raptor) (A375): −14.32%
- Avg (Rictor) (A375): −23.29%
- Avg (Stat1) (A375): −5.67%
- Avg (Stat3) (A375): 14.24%
- Avg (bad S112) (A375): −55.32%
- Avg (c Fos) (A375): −12.46%
- Avg (c Myc) (A375): −9.11%
- Avg (mTOR S2448) (A375): −23.61%
- Avg (mTOR S2481) (A375): −19.37%
- Avg (mTOR) (A375): −6.2%
- Avg (p70 S6 Kinase) (A375): −18.11%
- Avg (p90 RSK S380) (A375): −60.74%
- Avg(S6 Ribo Prot S235 236) (A375): −87.61%
- Avg(S6 Ribo Prot S240 244) (A375): −80.3%
- Avg(Tuberin TSC2 Y1571) (A375): −16.74%
- Avg(p70 S6 Kinase S371 S394) (A375): −17.34%
- Avg(p70 S6 Kinase T389 T412) (A375): −31.9%
- Avg (4ebp1 T70) (HCT116): 20.5%
- Avg (Akt S473) (HCT116): 4.69%
- Avg (Akt) (HCT116): −6.13%
- Avg (Bad S136) (HCT116): −1.24%
- Avg (Bad S155) (HCT116): −19.71%
- Avg (Bak) (HCT116): −1.74%
- Avg (Bax) (HCT116): −20.11%
- Avg (Bcl 2) (HCT116): −4.56%
- Avg (Bcl2 S70) (HCT116): −12.53%
- Avg (Bcl 2 T56) (HCT116): −11.96%
- Avg (Bim) (HCT116): 6.2%
- Avg (CREB S133) (HCT116): −8.56%
- Avg (Caspase 3 CL D175) (HCT116): −8.36%
- Avg (Caspase 7 Cl D198) (HCT116): −13.99%
- Avg (Chk1) (HCT116): 2.28%
- Avg (Chk1 S345) (HCT116): −18.77%
- Avg (Cyclin D1) (HCT116): −63.59%
- Avg (ERK 1 2) (HCT116): −1.9%
- Avg (ERK 1 2 T202 Y204) (HCT116): 526.64%
- Avg (MAK1 S360) (HCT116): −12.93%
- Avg (Mcl1) (HCT116): −4.77%
- Avg (Raptor S792) (HCT116): −15.77%
- Avg (Raptor) (HCT116): −6.2%
- Avg (Rictor) (HCT116): −10.98%
- Avg (Stat1) (HCT116): −6.32%
- Avg (Stat3) (HCT116): −0.25%
- Avg (bad S112) (HCT116): −12.36%
- Avg (c Fos) (HCT116): −10.36%
- Avg (c Myc) (HCT116): −12.03%
- Avg (mTOR S2448) (HCT116): −19.33%
- Avg (mTOR S2481) (HCT116): −18.34%
- Avg (mTOR) (HCT116): −4.85%
- Avg (p70 S6 Kinase) (HCT116): −9.9%
- Avg (p90 RSK S380) (HCT116): −22.25%
- Avg(S6 Ribo Prot S235 236) (HCT116): −94.82%
- Avg(S6 Ribo Prot S240 244) (HCT116): −95.1%
- Avg(Tuberin TSC2 Y1571) (HCT116): −9.4%
- Avg(p70 S6 Kinase S371 S394) (HCT116): −11.47%
- Avg(p70 S6 Kinase T389 T412) (HCT116): −24.73%
- Avg (4ebp1 T70) (AN3Ca): 11.28%
- Avg (Akt S473) (AN3Ca): 82.37%
- Avg (Akt) (AN3Ca): −26.04%
- Avg (Bad S136) (AN3Ca): 0.71%
- Avg (Bad S155) (AN3Ca): 17.31%
- Avg (Bak) (AN3Ca): 7.33%
- Avg (Bax) (AN3Ca): 23.83%
- Avg (Bcl 2) (AN3Ca): 7.8%
- Avg (Bcl2 S70) (AN3Ca): −0.65%
- Avg (Bcl 2 T56) (AN3Ca): 1.23%
- Avg (Bim) (AN3Ca): −11.63%
- Avg (CREB S133) (AN3Ca): 5.03%
- Avg (Caspase 3 CL D175) (AN3Ca): 1.55%
- Avg (Caspase 7 Cl D198) (AN3Ca): −15.56%
- Avg (Chk1) (AN3Ca): 9.43%
- Avg (Chk1 S345) (AN3Ca): 15.46%
- Avg (Cyclin D1) (AN3Ca): 0.34%
- Avg (ERK 1 2) (AN3Ca): −2.87%
- Avg (ERK 1 2 T202 Y204) (AN3Ca): 645.51%
- Avg (MAK1 S360) (AN3Ca): 6.84%
- Avg (Mcl1) (AN3Ca): −4.16%
- Avg (Raptor S792) (AN3Ca): 4.85%
- Avg (Raptor) (AN3Ca): −8.05%
- Avg (Rictor) (AN3Ca): −9.21%
- Avg (Stat1) (AN3Ca): 9.15%
- Avg (Stat3) (AN3Ca): −13.05%
- Avg (bad S112) (AN3Ca): 2.53%
- Avg (c Fos) (AN3Ca): −0.63%
- Avg (c Myc) (AN3Ca): 3.99%
- Avg (mTOR S2448) (AN3Ca): −2.96%
- Avg (mTOR S2481) (AN3Ca): 25.42%
- Avg (mTOR) (AN3Ca): −2.85%
- Avg (p70 S6 Kinase) (AN3Ca): −3.67%
- Avg (p90 RSK S380) (AN3Ca): −29.44%
- Avg(S6 Ribo Prot S235 236) (AN3Ca): −30.74%
- Avg(S6 Ribo Prot S240 244) (AN3Ca): −23.47%
- Avg(Tuberin TSC2 Y1571) (AN3Ca): 25.18%
- Avg(p70 S6 Kinase S371 S394) (AN3Ca): 29.09%
- Avg(p70 S6 Kinase T389 T412) (AN3Ca): 26.01%
- Avg (4ebp1 T70) (HT29): 1.95%
- Avg (Akt S473) (HT29): −10.5%
- Avg (Akt) (HT29): −10.01%
- Avg (Bad S136) (HT29): 2%
- Avg (Bad S155) (HT29): −6.7%
- Avg (Bak) (HT29): 3.56%
- Avg (Bax) (HT29): 1.1%
- Avg (Bcl 2) (HT29): 18.16%
- Avg (Bcl2 S70) (HT29): 10.59%
- Avg (Bcl 2 T56) (HT29): 1.61%
- Avg (Bim) (HT29): 7.74%
- Avg (CREB S133) (HT29): 9.54%
- Avg (Caspase 3 CL D175) (HT29): −3.44%
- Avg (Caspase 7 Cl D198) (HT29): −0.88%
- Avg (Chk1) (HT29): 5.68%
- Avg (Chk1 S345) (HT29): 6.88%
- Avg (Cyclin D1) (HT29): −35.69%
- Avg (ERK 1 2) (HT29): 4.66%
- Avg (ERK 1 2 T202 Y204) (HT29): 268.99%
- Avg (MAK1 S360) (HT29): −0.04%
- Avg (Mcl1) (HT29): 3.71%
- Avg (Raptor S792) (HT29): −1.75%
- Avg (Raptor) (HT29): −6.85%
- Avg (Rictor) (HT29): −10.62%
- Avg (Stat1) (HT29): 2.58%
- Avg (Stat3) (HT29): −3.69%
- Avg (bad S112) (HT29): −12.98%
- Avg (c Fos) (HT29): −12.92%
- Avg (c Myc) (HT29): 7.56%
- Avg (mTOR S2448) (HT29): −11.44%
- Avg (mTOR S2481) (HT29): 3.23%
- Avg (mTOR) (HT29): 10.45%
- Avg (p70 S6 Kinase) (HT29): −2.83%
- Avg (p90 RSK S380) (HT29): −30.59%
- Avg(S6 Ribo Prot S235 236) (HT29): −41.45%
- Avg(S6 Ribo Prot S240 244) (HT29): −21.74%
- Avg(Tuberin TSC2 Y1571) (HT29): 11.86%
- Avg(p70 S6 Kinase S371 S394) (HT29): −25.73%
- Avg(p70 S6 Kinase T389 T412) (HT29): −20.86%
